{"source": "patent US20250059333A1", "about": "“BILAYER BIONIC DRUG-LOADED HYDROGEL, AND PREPARATION AND APPLICATION THEREOF” (Chengdu Hengkui Biotechnology Co., Ltd., priority 2022, published 2025)", "origin": "cited, not measured here", "conditions": "relative to glutaraldehyde, a commonly used chemical cross-linking agent", "data": [{"smiles": "COC(=O)C1=CO[C@@H](O)[C@@H]2C(CO)=CC[C@H]12", "note": "[genipin]", "values": [{"measurement": "toxicity lower than that of glutaraldehyde", "result": 10000, "unit": "times"}]}]}
